{
  "source": "patent US4795639A",
  "about": "“Potentiating formulations” (priority 1971, dated 1989)",
  "key": {"E. tenella": {"tested_on": "E. tenella", "experiment": "coccidiosis screening test in chicks, E. tenella", "format": "in vivo, Eimeria tenella", "settings": "Expt. 4; 100,000 oocysts; p.p.m SQX/DV/DMHP: b374 10/-/-; b375 -/20/-; b376 -/-/10; b377 10/-/10; b378 -/20/10; b379 10/20/-; b381 10/20/10; b382 20/-/-; b383 -/40/-; b384 -/-/20; b385 20/-/20; b386 -/40/20; b387 20/40/-; b389 20/40/20", "protocol": "\"Screening tests\" were performed to establish the effectiveness of the compounds of formula (I) both alone and in combination with a competitor and or an inhibitor and to determine the most useful levels of relative concentrations of each component in combatting or suppressing coccidiosis.\nGroups of Ranger cockerels, housed in small, heated cages with wire floors situated in enironmentally controlled isolation rooms, were infected orally with sporulated oocysts of the Eimeria spp such as E. tenella or E. acervulina. The appropriate test compound(s), (DMHP, sulphaquinoxaline (SQX) or diaveridine (DV) or any combination of these) were incorporated in a small quantity of specially formulated laboratory ration deficient in Vitamin K (`L.D.4 mash`), as a 1/10 pre-mix, which was then mixed into the diet on a horizontal roller drum mixed and administered to groups of chicks one day prior to infection, leaving some groups as untreated controls. Administration was continued for several days, for example about 8 or 9 days.\nThe amount of damage, marked by lesions in the caecal walls was investigated in those chicks that died during the course of the experiment, and in those sacrificed on the final day of administration, and compared with the untreated controls as a basis for the determination of therapeutic activity. In addition the mortality rate and the percentage weight gains in the various groups were assessed. A marked or definite effect of the administered drug could be recognised even when the mortality rates were similar or identical, since the increase in the weight gains and the reduction of the extension of lesions indicated by the lesion score, is characteristic of an improvement. […]\n4:1 sulphaquinoxaline/diaveridine mixtures at levels of 80/20, 60/15, 40/10 and 20/5 p.p.m. were administered alone and in combination with a wide range of low concentrations of DMHP to the birds.\nThe results of these screening tests are set forth in Table 4 showing the concentration of the various component compounds in parts per million of the bird's diet, the mortality from coccidiosis, the percentage weight gain, the lesion score the oocyst output, and the activity. The caecal lesion index is calculated using a score system where: […]\nIn addition a score of 4 is assigned to any bird that dies of coccidiosis during the experiment. [formula] In the activity column, +++, ++, +, ± and - relate respectively to very high, high, slight, doubtful and nil activity of the test drug against the Eimeria infection."}, "Pasteurella multocida": {"tested_on": "Pasteurella multocida", "experiment": "Pasteurella multocida infection in chicks", "format": "in vivo"}, "Pseudomonas aeruginosa": {"tested_on": "Pseudomonas aeruginosa", "experiment": "zone inhibition, pteridine in agar, drugs in well", "format": "cell-based", "settings": "for complete zone inhibition, SMX (300) / zone including partial inhibition, SMX (300): SMX 300 μg/ml; for zone including partial inhibition, TMP (30): TMP 30 μg/ml; for complete zone inhibition, TMP + SMX (5) (100) / zone including partial inhibition, TMP + SMX (5) (100): TMP 5 + SMX 100 μg/ml", "protocol": "(§1) The pteridine was included in a soya peptone medium of low thymidine content (Wellcotest Sensitivity Test Agar) contained in a Petri-dish and the other component(s) added to the well resulting from the removal of a small plug from the medium. The surface of the medium was inoculated with the test organism and then incubated."}, "Staphylococcus aureus": {"tested_on": "Staphylococcus aureus", "experiment": "zone inhibition, pteridine in agar, drugs in well", "format": "cell-based", "settings": "for complete zone inhibition, SMX (300) / zone including partial inhibition, SMX (300): SMX 300 μg/ml; for complete zone inhibition, TMP + SMX (5) (100) / zone including partial inhibition, TMP + SMX (5) (100): TMP 5 + SMX 100 μg/ml", "protocol": "as §1"}, "coccidiosis": {"tested_on": "coccidiosis", "experiment": "potentiating effect against coccidiosis", "format": "in vivo", "settings": "replacement of DMHP"}, "[1]": {"target": "T1, hydroxymethyldihydropteridine pyrophosphokinase (HMPPS) (Escherichia coli, UniProt P26281)", "T1 construct": "obtained from an extract of E. coli; endogenous in cells; host or cells: E. coli extract; HMPPS separated from synthetase on Sephadex G-100 (method of Richey and Brown 1969)", "T1 sequence (P26281 whole entry)": "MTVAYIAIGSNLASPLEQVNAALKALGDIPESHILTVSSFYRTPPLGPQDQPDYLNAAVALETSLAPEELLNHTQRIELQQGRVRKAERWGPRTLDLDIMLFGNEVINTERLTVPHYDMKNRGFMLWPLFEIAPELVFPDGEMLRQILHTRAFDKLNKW", "experiment": "HMPPS assay: transfer of terminal phosphate of ATP-γ-P^32 to Pt", "format": "biochemical, E. coli", "settings": "read-out: IC50", "description": "(a) An assay for HMPPS was developed in which the transfer of the terminal phosphate of ATP-γ-P^32 to Pt could be monitored and correlated with the amount of inhibition of HMPPS by the compound under test.\nThe compound under test was incorporated into various formulations comprising metabolites and enzymes contained in test tubes, as indicated in TABLE 1.\nII--a source of HMMP S, obtained from an extract of E. coli and separated from `synthetase` on Sephadex G-100, according to the method of Richey and Brown in J. Biol. Chem. 244, 1582-1592 (1969)\nControl tubes 10 to 12 include a source of both HMPPS and synthetase, unlabelled ATP, 0.1M MgCl2.6H2 O and labelled pAB.\nTubes 1 to 9 containing the amounts of components shown in the Table, were filled up to 200 μl with distilled water, incubated for 60 minutes at 37° C. and then chilled on ice. Dextrose (20 μl containing 72.1 mg/ml) and hexokinase (5 μl containing 2000 units/ml) were added to the solution, which was then allowed to stand at room temperature for 15 minutes. `Darco-G-60` (Registered Trade Mark) (10 mg) was added to each tube and the contents mixed periodically for 10 minutes. The charcoal was removed through a \"Millipore AP 250 2200\" (Registered Trade Mark) filter and the filter was washed with three 10 ml portions of cold water. The Charcoal and the filter were then radioactively counted.\nThe radioactive count from the contents of tubes 2 and 3 was taken as the maximum count, since these tubes contained no test compound and thus gave 0% enzyme inhibition. The percentage inhibition produced by the contents of the remaining tubes could then be calculated by relating their radioactive count to the maximum, as determined above."}, "[2]": {"settings": "pteridine 3 μg/ml, TMP 30 μg/ml"}, "[3]": {"settings": "pteridine 10 μg/ml, TMP 30 μg/ml"}},
  "note": "Several values for one entry are separate records, joined by “and”; a condition that tells them apart may be missing. Equal entries are not always repeated.",
  "data": [
    {"compound": "COc1ccc(Cc2cnc(N)nc2N)cc1OC", "note": "[DV, 2,4-diamino-5-(3',4'-dimethoxybenzyl) pyrimidine]", "values": [
      {"measurement": "Mortality from Coccidiosis", "setting": "E. tenella", "value": "8/10 and 8/9"},
      {"measurement": "activity alone against Pasteurella multocida", "setting": "Pasteurella multocida; Example 3 Experiment 1", "value": "low activity alone"},
      {"measurement": "Average Weight of surviving chicks", "setting": "Pasteurella multocida; Table 5, doses as in E44", "value": 140.0, "unit": "gm"},
      {"measurement": "Cumulative Mortality on day 2", "setting": "Pasteurella multocida; Table 5, doses as in E44", "value": "2 and 1"},
      {"measurement": "Cumulative Mortality on day 5", "setting": "Pasteurella multocida; Table 5, doses as in E44", "value": "6 and 5"},
      {"measurement": "Cumulative Mortality on day 6", "setting": "Pasteurella multocida; Table 5, doses as in E44", "value": "6 and 8"},
      {"measurement": "Cumulative Mortality on day 7", "setting": "Pasteurella multocida; Table 5, doses as in E44", "value": "7 and 9"},
      {"measurement": "Cumulative Mortality on day 8", "setting": "Pasteurella multocida; Table 5, doses as in E44", "value": "7 and 10"},
      {"measurement": "Cumulative Mortality on day 9", "setting": "Pasteurella multocida; Table 5, doses as in E44", "value": 7},
      {"measurement": "Cumulative Mortality on day 10", "setting": "Pasteurella multocida; Table 5, doses as in E44", "value": 7}
    ]},
    {"compound": "CCC1(CC)Nc2nc(N)nc(O)c2N=C1CO", "note": "[R = CH2 OH R = R^2 = Et, 2-amino-4-hydroxy-6-hydroxymethyl-7,7-diethyl-7,8-dihydropteridine]", "values": [
      {"measurement": "complete zone inhibition, SMX (300)", "setting": "Pseudomonas aeruginosa; pteridine 3 μg/ml", "value": 9.0, "unit": "centimeters"},
      {"measurement": "zone including partial inhibition, SMX (300)", "setting": "Pseudomonas aeruginosa; pteridine 3 μg/ml", "value": 13.0, "unit": "centimeters"},
      {"measurement": "zone including partial inhibition, TMP (30)", "setting": "Pseudomonas aeruginosa; pteridine 3 μg/ml", "value": 3.0, "unit": "centimeters"},
      {"measurement": "complete zone inhibition, TMP + SMX (5) (100)", "setting": "Pseudomonas aeruginosa; pteridine 3 μg/ml", "value": 7.0, "unit": "centimeters"},
      {"measurement": "zone including partial inhibition, TMP + SMX (5) (100)", "setting": "Pseudomonas aeruginosa; pteridine 3 μg/ml", "value": 10.0, "unit": "centimeters"},
      {"measurement": "complete zone inhibition, SMX (300)", "setting": "Pseudomonas aeruginosa; pteridine 10 μg/ml", "value": 13, "unit": "centimeters"},
      {"measurement": "zone including partial inhibition, SMX (300)", "setting": "Pseudomonas aeruginosa; pteridine 10 μg/ml", "value": 16.0, "unit": "centimeters"},
      {"measurement": "zone including partial inhibition, TMP (30)", "setting": "Pseudomonas aeruginosa; pteridine 10 μg/ml", "value": 5.0, "unit": "centimeters"},
      {"measurement": "complete zone inhibition, TMP + SMX (5) (100)", "setting": "Pseudomonas aeruginosa; pteridine 10 μg/ml", "value": 8.0, "unit": "centimeters"},
      {"measurement": "zone including partial inhibition, TMP + SMX (5) (100)", "setting": "Pseudomonas aeruginosa; pteridine 10 μg/ml", "value": 12.0, "unit": "centimeters"},
      {"measurement": "synergism with TMP and SMX against Staphylococcus aureus", "setting": "Staphylococcus aureus; compared with DMHP", "value": "slightly more active than DMHP"},
      {"measurement": "complete zone inhibition, SMX (300)", "setting": "Staphylococcus aureus; pteridine 3 μg/ml", "value": 6.5, "unit": "centimeters"},
      {"measurement": "zone including partial inhibition, SMX (300)", "setting": "Staphylococcus aureus; pteridine 3 μg/ml", "value": 12.5, "unit": "centimeters"},
      {"measurement": "complete zone inhibition, TMP (30)", "setting": "Staphylococcus aureus; [2]", "value": 8.5, "unit": "centimeters"},
      {"measurement": "zone including partial inhibition, TMP (30)", "setting": "Staphylococcus aureus; [2]", "value": 10.5, "unit": "centimeters"},
      {"measurement": "complete zone inhibition, TMP + SMX (5) (100)", "setting": "Staphylococcus aureus; pteridine 3 μg/ml", "value": 10.5, "unit": "centimeters"},
      {"measurement": "zone including partial inhibition, TMP + SMX (5) (100)", "setting": "Staphylococcus aureus; pteridine 3 μg/ml", "value": 12.5, "unit": "centimeters"},
      {"measurement": "complete zone inhibition, SMX (300)", "setting": "Staphylococcus aureus; pteridine 10 μg/ml", "value": 10.5, "unit": "centimeters"},
      {"measurement": "zone including partial inhibition, SMX (300)", "setting": "Staphylococcus aureus; pteridine 10 μg/ml", "value": 14.0, "unit": "centimeters"},
      {"measurement": "complete zone inhibition, TMP (30)", "setting": "Staphylococcus aureus; [3]", "value": 10.5, "unit": "centimeters"},
      {"measurement": "zone including partial inhibition, TMP (30)", "setting": "Staphylococcus aureus; [3]", "value": 13.0, "unit": "centimeters"},
      {"measurement": "complete zone inhibition, TMP + SMX (5) (100)", "setting": "Staphylococcus aureus; pteridine 10 μg/ml", "value": 11.0, "unit": "centimeters"},
      {"measurement": "zone including partial inhibition, TMP + SMX (5) (100)", "setting": "Staphylococcus aureus; pteridine 10 μg/ml", "value": 14.5, "unit": "centimeters"},
      {"measurement": "complete zone inhibition, TMP (30)", "setting": "Staphylococcus aureus; pteridine 30 μg/ml in medium, TMP 30 μg/ml in well, about 6× magnification", "value": 12.5, "unit": "centimeters"},
      {"measurement": "complete zone inhibition, SMX (300)", "setting": "Staphylococcus aureus; pteridine 30 μg/ml", "value": 12.5, "unit": "centimeters"},
      {"measurement": "zone including partial inhibition, SMX (300)", "setting": "Staphylococcus aureus; pteridine 30 μg/ml", "value": 17.0, "unit": "centimeters"},
      {"measurement": "zone including partial inhibition, TMP (30)", "setting": "Staphylococcus aureus; pteridine 30 μg/ml, TMP 30 μg/ml", "value": 17.0, "unit": "centimeters"},
      {"measurement": "complete zone inhibition, TMP + SMX (5) (100)", "setting": "Staphylococcus aureus; pteridine 30 μg/ml", "value": 12.5, "unit": "centimeters"},
      {"measurement": "zone including partial inhibition, TMP + SMX (5) (100)", "setting": "Staphylococcus aureus; pteridine 30 μg/ml", "value": 17.0, "unit": "centimeters"}
    ]},
    {"compound": "CC1=Nc2c(O)nc(N)nc2NC1(C)C", "note": "[R=Me, R^1=Me, R^2=Me, 2-Amino-4-hydroxy-6-methyl-7,7-dimethyl-7,8-dihydropteridine]", "values": [
      {"measurement": "potentiating effect against coccidiosis", "setting": "coccidiosis", "value": "noticeable, athough less marked potentiating effect"},
      {"measurement": "IC50", "setting": "[1]", "value": 75, "unit": "µM"}
    ]}
  ]
}
